IC50 data for five molecules are collected here from patent US4738954A, “Novel N^6 -substituted-5'-oxidized adenosine analogs” (Warner-Lambert Company, priority 1985, dated 1988).

For orientation: IC50 means the concentration that gives 50% inhibition.

For test [1], the target named is T1, adenosine A1 receptor (Rattus norvegicus, UniProt P25099).
T1 construct: Whole brain minus cerebellum and brainstem from male Long Evans rats; from tissue; host or cells: rat whole brain minus cerebellum and brainstem, membranes
T1 sequence (P25099 1-326): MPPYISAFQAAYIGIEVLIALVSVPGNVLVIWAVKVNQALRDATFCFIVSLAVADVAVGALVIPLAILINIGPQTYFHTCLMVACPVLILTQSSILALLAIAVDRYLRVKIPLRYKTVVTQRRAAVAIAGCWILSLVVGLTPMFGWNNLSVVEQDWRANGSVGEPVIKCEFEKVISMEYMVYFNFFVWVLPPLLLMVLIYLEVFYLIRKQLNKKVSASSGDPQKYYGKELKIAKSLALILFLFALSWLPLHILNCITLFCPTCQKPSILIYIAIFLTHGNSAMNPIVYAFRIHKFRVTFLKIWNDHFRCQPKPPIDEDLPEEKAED
As to the kind of experiment: Adenosine Receptor Binding--A1 Receptor Affinity (RBA1), [3H]-CHA displacement. The settings on record: 1.0 nM [3H]-CHA, rat brain, 25° C, 1 h; read-out: RBA-1 (IC50, A1 receptor affinity). The procedure:
Adenosine Receptor Binding--A1 Receptor Affinity (RBA1)
Whole brain minus cerebellum and brainstem from male Long Evans rats (105-200 g) was homogenized in 30 volumes of ice-cold 0.05M Tris-HCl buffer pH 7.7 using a Brinkman Polytron PT-10, (setting number 6 for 20 seconds) and centrifuged for ten minutes at 20,000×g (Sorvall RC-2), 4° C. The supernatant was discarded, and the pellet was resuspended and centrifuged as before. The pellet was resuspended in 20 ml Tris-HCl buffer containing two International Units/ml of adenosine deaminase (Sigma type III from calf intestinal mucosa), incubated at 37° C. for 30 minutes, then subsequently at 0° C. for ten minutes. The homogenate was again centrifuged, and the final pellet was resuspended in ice-cold 0.05M Tris-HCl buffer pH 7.7 to a concentration of 20 mg/ml original wet tissue weight and used immediately.
Tissue homogenate (10 mg/ml) was incubated in 0.05M Tris-HCl buffer pH 7.7 containing 1.0 nM ((^3 H))-N^6 -cyclohexyladenosine ([^3 H]-CHA) with or without test agents in triplicate for one hour at 25° C. Incubation volume was 2 ml. Unbound [^3 H]-CHA was separated by rapid filtration under reduced pressure through Whatman glass fiber (GF/B) filters. The filters were rinsed three times with 5 ml of ice cold 0.05M Tris-HCl buffer pH 7.7. The radio-labeled ligand retained on the filter was measured by liquid scintillation spectrophotometry after shaking the filters for one hour or longer on a mechanical shaker in 10 ml of Beckman Ready-Solv HP scintillation cocktail.
Nonspecific binding was defined as the binding which occured in the presence of 1 mM theophylline. The concentration of test agent which inhibited 50% of the specific binding (IC50) was determined by nonlinear computer curve fit. The Scatchard plot was calculated by linear regression of the line obtained by plotting the amount of radioligand bound (pmoles/gram of tissue) versus [formula] Since the amount of radioligand bound was a small fraction of the total amount added, free radioligand was defined as the concentration of (nM) of radioligand added to the incubation mixture. The Hill coefficient was calculated by linear regression of the line obtained by plotting the log of the bound radioligand vs the log of the [formula] The maximal number of binding sites (Bmax) was calculated from the Scatchard plot.

For test [2], the system named is platelets (ADP-induced aggregation). Kind of test: Antithrombocyte aggregation test in vitro (ATA-8), ADP-induced, platelet rich plasma. Particulars: Homo sapiens. The format is cell-based, human (Community Research Clinic volunteers). The protocol:
(§1) ANTITHROMBOCYTE AGGREGATION TEST-IN VITRO (ATA-8)
Source and Preparation of Platelet Suspensions
Blood is collected from Community Research Clinic volunteers who have not ingested aspirin or other non-steroidol antiinflammatory drugs within the preceeding two weeks and have not eaten within the nine hours before blood draw. Blood is taken in 4.5 ml portions in Vacutainer No. 6462S silicone-coated tubes or equivalent containing 0.5 ml of 3.8% trisodium citrate. Usually six or eight portions of 4.5 ml are drawn from each volunteer. The blood collected from three or four volunteers is pooled prior to centrifugation. The pooled blood is put in 50 ml polyethylene tubes and centrifuged at 80×g (ca 600 rpm) for 20 min in an International Model K centrifuge at room temperature. […] The platelet count of the PRP is determined with a Coulter Thromobocounter. […]
Platelet-rich plasma adjusted to 250,000 platelets per microliter is distributed in 0.36 ml aliquots into silicone-coated cuvettes of 0.312 inch diameter. […] Extent of aggregation, using ADP stimulus, or rate of aggregation, using collagen stimulus, is determined using the Payton Scientific Dual Channel Aggregation Module, Model 300B. Appropriate concentrations of ADP or collagen are determined by an initial brief titration. […]

Test [3] has the same test system. Kind of test: Antithrombocyte aggregation test in vitro (ATA-8), ADP-induced, whole blood. It counts as cell-based, human (Community Research Clinic volunteers). Particulars: Homo sapiens, Platelet. The procedure:
as §1
Blood is collected from Community Research Clinic volunteers who have not ingested aspirin or other non-steroidol antiinflammatory drugs within the preceeding two weeks and have not eaten within the nine hours before blood draw. Blood is taken in 4.5 ml portions in Vacutainer No. 6462S silicone-coated tubes or equivalent containing 0.5 ml of 3.8% trisodium citrate. Usually six or eight portions of 4.5 ml are drawn from each volunteer. […] The pooled blood is put in 50 ml polyethylene tubes and centrifuged at 80×g (ca 600 rpm) for 20 min in an International Model K centrifuge at room temperature. […]
Addition of drug solution or saline (0.02 ml) is followed in 5 min by addition of aggregating agent (ADP or collagen suspension, 0.02 ml). Extent of aggregation, using ADP stimulus, or rate of aggregation, using collagen stimulus, is determined using the Payton Scientific Dual Channel Aggregation Module, Model 300B. Appropriate concentrations of ADP or collagen are determined by an initial brief titration.
The height in millimeters of aggregation curves for control aggregations (no drug addition, saline only) are compared with the heights of curves obtained after drug addition at various appropriate concentrations. Heights after drug addition are finally expressed as "percent of control" values. […]

SMILES strings stand for the structures.

With `CCOC(=O)[C@H]1O[C@@H](n2cnc3c(NCC(c4ccccc4)c4ccccc4)ncnc32)[C@H](O)[C@@H]1O` [Example 5, N6-(2,2-diphenylethyl)-5-adenosine-5'-ethylcarboxylate], the IC50 in test [1] came out at 291 nM.
With `CCNC(=O)[C@H]1O[C@@H](n2cnc3c(NCC(c4ccccc4)c4ccccc4)ncnc32)[C@H](O)[C@@H]1O` [Example 3, N^6-(2,2-diphenylethyl)-adenosine-5'-ethylcarboxamide], in test [1], the IC50 worked out at 16 nM.
Take `CCNC(=O)[C@H]1O[C@@H](n2cnc3c(NCc4cccc5ccccc45)ncnc32)[C@H](O)[C@@H]1O` [Example 6, N-6-Naphthylmethyladenosine-5'-ethylcarboxamide]: in test [1], the IC50 stood at 49 nM.
On to `CCNC(=O)[C@H]1O[C@@H](n2cnc3c(N[C@H](C)Cc4ccccc4)ncnc32)[C@H](O)[C@@H]1O` [Example 1, (R)-N-6-[(2-phenyl-1-methyl)ethyl]-adenosine-5'-ethylcarboxamide], for which the IC50 in test [2] came to 600 nM; in test [3], 0.7 nM; in test [1], 2 nM.
On to `CCOC(=O)[C@H]1O[C@@H](n2cnc3c(NC4CC5CCC4C5)ncnc32)[C@H](O)[C@@H]1O` (relative stereo) [Example 8, N-6-Norbornyl-adenosine-5'ethylcarboxylate], for which, in test [1], the IC50 was determined as 4 nM.
